PubChem BioAssay (NCI)
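Assay format: 96-well plates, 48-hour exposure. At the GI50, growth is halved. TGI: concentration producing complete growth inhibition.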

Experiments:
Test in all cases: NCI anticancer screen, dose series, 48 h
SK-MEL-2 melanoma = tested on: SK-MEL-2 melanoma
KM12 colon = tested on: KM12 colon
OVCAR-5 ovarian = tested on: OVCAR-5 ovarian
COLO 205 colon = tested on: COLO 205 colon
SNB-19 CNS = tested on: SNB-19 CNS
MDA-MB-435 = tested on: MDA-MB-435
OVCAR-4 ovarian = tested on: OVCAR-4 ovarian
SN12C renal = tested on: SN12C renal
HL-60(TB) leukemia = tested on: HL-60(TB) leukemia
HOP-92 NSCLC = tested on: HOP-92 NSCLC
SR leukemia = tested on: SR leukemia
CAKI-1 renal = tested on: CAKI-1 renal
LOX IMVI melanoma = tested on: LOX IMVI melanoma

| SMILES | TGI (SK-MEL-2 melanoma) [µM] | TGI (KM12 colon) [µM] | TGI (OVCAR-5 ovarian) [µM] | TGI (COLO 205 colon) [µM] | TGI (SNB-19 CNS) [µM] | TGI (MDA-MB-435) [µM] | TGI (OVCAR-4 ovarian) [µM] | TGI (SN12C renal) [µM] | TGI (HL-60(TB) leukemia) [µM] | TGI (HOP-92 NSCLC) [µM] | TGI (SR leukemia) [µM] | TGI (CAKI-1 renal) [µM] | TGI (LOX IMVI melanoma) [µM] | GI50 (SNB-19 CNS) [µM] |
| --- | --- | --- | --- | --- | --- | --- | --- | --- | --- | --- | --- | --- | --- | --- |
| COc1c(C(=O)O)cccc1-c1cccc(C(=O)NCCN(CCNC(=O)c2cccc(-c3cccc(C(=O)O)c3OC)c2OC)CCNC(=O)c2cccc(-c3cccc(C(=O)O)c3OC)c2OC)c1OC | > 100 | > 100 | > 100 | 62.9 | > 100 | 34.3 | > 100 | 89.9 | 65.4 | > 100 | 44.1 | > 100 | > 100 |  |
| COC(=O)C1=C(C(=O)OC)C(C(=O)c2ccccc2)N2N=C(c3ccc(Cl)cc3)C=CC12 (stereo unspecified) | > 100 | > 100 | > 100 | > 100 | > 100 | > 100 | > 100 | > 100 | > 100 | > 100 | > 100 | > 100 | > 100 |  |
| C/C(=C\c1csc(C)n1)[C@@H]1C[C@@H]2O[C@]2(C)CCC[C@H](C)[C@H](O)[C@@H](C)C(=O)C(C)(C)[C@@H](O)CC(=O)O1 (tested in a mixture with another compound) | > 0.464 | > 0.44 | > 1 | 0.119 | > 1 | 0.00284 | > 1 | > 1 | 0.0278 | > 1 | > 0.239 | > 1 | > 1 | 0.025 |
| CCC/C(Cl)=N\OC(=O)Nc1ccc(Br)cc1 | 28.9 | 16.2 | 27.8 | 7.19 | > 59.7 | 28.7 | 48.2 | 33.8 | 7.22 | 9.17 | 18.4 | 5.77 | 10.6 |  |
| CC1=C/C(=N\N(C)C)C(C(O)(C(F)(F)F)C(F)(F)F)C(C)(C)C1 (stereo unspecified) | > 100 | > 100 | > 100 | > 100 | > 100 | > 100 | > 100 | > 100 | > 100 | 81 | > 100 | > 100 | > 100 |  |
